Test results published in patent publication US20180222836A1, “Process for the Preparation of Pharmaceutical Grade Ferric Citrate” (Lupin Limited, priority 2015, published 2018).

Assay: BET active specific surface area (U.S. Pharmacopeia General Chapter <846>)
Format: physicochemical
Conditions: pharmaceutical grade ferric citrate, dried powder from one-pot process
Protocol: According to the present invention, the pharmaceutical grade ferric citrate having BET surface area in the range of […]. the method of analysis for BET surface are of the ferric citrate is performed as per U.S. Pharmacopeia General Chapter <846>.

ferric citrate [EXAMPLE-1]
BET Active Specific Surface Area: 6.51 m^2/gm

ferric citrate [EXAMPLE-2]
BET Active Specific Surface Area: 6.47 m^2/gm
